How the values were obtained:
Experiment in all cases: relative viability (nuclei count vs DMSO), 5 days (fraction); higher = more cells survive
AZD1208 + Olaparib = compound: N[C@@H]1CCCN(c2c(/C=C3\SC(=O)NC3=O)cccc2-c2ccccc2)C1 [AZD1208] + O=C(c1cc(Cc2n[nH]c(=O)c3ccccc23)ccc1F)N1CCN(C(=O)C2CC2)CC1 [Olaparib] (partner 8 µM)
Procedure, shortened: (§1)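 Lung cancer cell lines in 1536-well plates were dosed by pin tool the day after seeding, either with one drug alone or with a fixed anchor-drug dose plus five library-drug doses (not always all listed) in √10 steps. After 5 days, cells were fixed and their nuclei stained in one step (final 0.05% Triton X-100, 1% formaldehyde, 1 ug/ml Hoechst), then counted on 4× images. Relative viability is the nuclei count in treated wells divided by that in vehicle wells. Values are medians of duplicate plates.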

AZD1208 + Pictilisib = compound: N[C@@H]1CCCN(c2c(/C=C3\SC(=O)NC3=O)cccc2-c2ccccc2)C1 [AZD1208] + CS(=O)(=O)N1CCN(Cc2cc3nc(-c4cccc5[nH]ncc45)nc(N4CCOCC4)c3s2)CC1 [Pictilisib] (partner 1 µM)
Procedure, shortened: as §1

XMD14-99 + Luminespib = compound: CN1CCN(CC1)C2=CC(=C(C=C2)NC3=NC(=C(S3)C(=O)C4=C(C=CC=C4Cl)Cl)N)OC [XMD14-99] + CCNC(=O)c1noc(-c2cc(C(C)C)c(O)cc2O)c1-c1ccc(CN2CCOCC2)cc1 [Luminespib] (partner 0.01 µM)
Procedure, shortened: as §1

XMD14-99 + Trametinib = compound: CN1CCN(CC1)C2=CC(=C(C=C2)NC3=NC(=C(S3)C(=O)C4=C(C=CC=C4Cl)Cl)N)OC [XMD14-99] + CC(=O)Nc1cccc(-n2c(=O)n(C3CC3)c(=O)c3c(Nc4ccc(I)cc4F)n(C)c(=O)c(C)c32)c1 [Trametinib] (partner 0.02 µM)
Procedure, shortened: as §1

NCI-H1792
relative viability (AZD1208 + Olaparib; first compound 0.08 µM): 0.414
relative viability (AZD1208 + Olaparib; first compound 0.253 µM): 0.39
relative viability (AZD1208 + Olaparib; first compound 2.53 µM): 0.44
relative viability (AZD1208 + Olaparib; first compound 8 µM): 0.246
relative viability (AZD1208 + Pictilisib; first compound 0.08 µM): 0.255
relative viability (AZD1208 + Pictilisib; first compound 0.253 µM): 0.272
relative viability (AZD1208 + Pictilisib; first compound 0.8 µM): 0.258
relative viability (AZD1208 + Pictilisib; first compound 2.53 µM): 0.218
relative viability (AZD1208 + Pictilisib; first compound 8 µM): 0.199
relative viability (XMD14-99 + Luminespib; first compound 0.08 µM): 0.543
relative viability (XMD14-99 + Luminespib; first compound 0.8 µM): 0.456
relative viability (XMD14-99 + Luminespib; first compound 2.53 µM): 0.354
relative viability (XMD14-99 + Luminespib; first compound 8 µM): 0.326
relative viability (XMD14-99 + Trametinib; first compound 0.08 µM): 0.419
relative viability (XMD14-99 + Trametinib; first compound 0.8 µM): 0.465
relative viability (XMD14-99 + Trametinib; first compound 2.53 µM): 0.399
relative viability (XMD14-99 + Trametinib; first compound 8 µM): 0.302

NCI-H1793
relative viability (AZD1208 + Olaparib; first compound 0.08 µM): 0.878
relative viability (AZD1208 + Olaparib; first compound 0.253 µM): 0.649
relative viability (AZD1208 + Olaparib; first compound 0.8 µM): 0.767
relative viability (AZD1208 + Olaparib; first compound 2.53 µM): 0.744
relative viability (AZD1208 + Olaparib; first compound 8 µM): 0.675
relative viability (AZD1208 + Pictilisib; first compound 0.08 µM): 0.362
relative viability (AZD1208 + Pictilisib; first compound 0.253 µM): 0.212
relative viability (AZD1208 + Pictilisib; first compound 0.8 µM): 0.257
relative viability (AZD1208 + Pictilisib; first compound 2.53 µM): 0.385
relative viability (AZD1208 + Pictilisib; first compound 8 µM): 0.276
relative viability (XMD14-99 + Luminespib; first compound 0.08 µM): 0.232
relative viability (XMD14-99 + Luminespib; first compound 0.8 µM): 0.184
relative viability (XMD14-99 + Luminespib; first compound 2.53 µM): 0.499
relative viability (XMD14-99 + Luminespib; first compound 8 µM): 0.25
relative viability (XMD14-99 + Trametinib; first compound 0.08 µM): 0.462
relative viability (XMD14-99 + Trametinib; first compound 0.8 µM): 0.38
relative viability (XMD14-99 + Trametinib; first compound 2.53 µM): 0.39
relative viability (XMD14-99 + Trametinib; first compound 8 µM): 0.268

NCI-H1915
relative viability (AZD1208 + Olaparib; first compound 0.08 µM): 0.251
relative viability (AZD1208 + Olaparib; first compound 0.253 µM): 0.236
relative viability (AZD1208 + Olaparib; first compound 0.8 µM): 0.261
relative viability (AZD1208 + Olaparib; first compound 2.53 µM): 0.218
relative viability (AZD1208 + Olaparib; first compound 8 µM): 0.238
relative viability (AZD1208 + Pictilisib; first compound 0.08 µM): 0.874
relative viability (AZD1208 + Pictilisib; first compound 0.253 µM): 0.899
relative viability (AZD1208 + Pictilisib; first compound 0.8 µM): 0.832
relative viability (AZD1208 + Pictilisib; first compound 2.53 µM): 0.849
relative viability (AZD1208 + Pictilisib; first compound 8 µM): 0.84
relative viability (XMD14-99 + Luminespib; first compound 0.08 µM): 0.745
relative viability (XMD14-99 + Luminespib; first compound 0.8 µM): 0.72
relative viability (XMD14-99 + Luminespib; first compound 2.53 µM): 0.754
relative viability (XMD14-99 + Luminespib; first compound 8 µM): 0.61
relative viability (XMD14-99 + Trametinib; first compound 0.08 µM): 0.301
relative viability (XMD14-99 + Trametinib; first compound 0.8 µM): 0.311
relative viability (XMD14-99 + Trametinib; first compound 2.53 µM): 0.25
relative viability (XMD14-99 + Trametinib; first compound 8 µM): 0.224

NCI-H1944
relative viability (AZD1208 + Olaparib; first compound 0.08 µM): 0.387
relative viability (AZD1208 + Olaparib; first compound 0.253 µM): 0.411
relative viability (AZD1208 + Olaparib; first compound 0.8 µM): 0.361
relative viability (AZD1208 + Olaparib; first compound 2.53 µM): 0.373
relative viability (AZD1208 + Olaparib; first compound 8 µM): 0.344
relative viability (AZD1208 + Pictilisib; first compound 0.08 µM): 0.33
relative viability (AZD1208 + Pictilisib; first compound 0.253 µM): 0.345
relative viability (AZD1208 + Pictilisib; first compound 0.8 µM): 0.306
relative viability (AZD1208 + Pictilisib; first compound 2.53 µM): 0.298
relative viability (AZD1208 + Pictilisib; first compound 8 µM): 0.277
relative viability (XMD14-99 + Luminespib; first compound 0.08 µM): 0.672
relative viability (XMD14-99 + Luminespib; first compound 0.8 µM): 0.754
relative viability (XMD14-99 + Luminespib; first compound 2.53 µM): 0.533
relative viability (XMD14-99 + Luminespib; first compound 8 µM): 0.575
relative viability (XMD14-99 + Trametinib; first compound 0.08 µM): 0.446
relative viability (XMD14-99 + Trametinib; first compound 0.8 µM): 0.374
relative viability (XMD14-99 + Trametinib; first compound 2.53 µM): 0.381
relative viability (XMD14-99 + Trametinib; first compound 8 µM): 0.338
